From PMC10318822, “Phase 1 dose-escalation study to evaluate the safety, tolerability, pharmacokinetics, and anti-tumor activity of FCN-159 in adults with neurofibromatosis type 1-related unresectable plexiform neurofibromas” (BMC Medicine, 2023)
“Also recorded” adds a separate entry of the source.

How the values were obtained:
[1] = set-up: method as in PMID 36113242; conditions: patients with NRAS mut+ melanoma; cited from earlier work
[2] = Plasma pharmacokinetics of FCN-159, non-compartmental analysis; assay type: in vivo, human; conditions: for AUCtau / CLss/F / Cavg,ss / Cmax,ss / Cmin,ss / ARAUC0-t / ARCmax / AUC0-t / AUC0-∞ / CL/F / Cmax / T1/2 / Vd/F: Geomean; for ARAUC0-t: AUC0-t (steady state) / AUC0-t; for ARCmax: Cmax (steady state) / Cmax; for Tmax: median
Experimental: In order to study the PK characteristics of FCN-159 in plasma, blood samples were collected pre-dose and 0.5, 1, 2, 3, 4, 6, and 10 h post dose on days 1 and 28 of cycle 1, and pre-dose only on days 2, 8, and 15 of cycle 1 and day 1 of cycle 2. Plasma PK parameters of FCN-159 in each dose group were analyzed with standard non-compartmental PK methods using Phoenix WinNonlin, v8.2. PK parameters included area under the curve (AUC)(0-last), AUC(0-∞), maximum plasma concentration (Cmax), time to maximum plasma concentration (Tmax), half-life (T1/2), oral clearance (CL/F), and volume of distribution (Vd/F) for the single-dose regimen and AUC(0-tau), Cmax, Tmax, minimum steady-state plasma concentration (Css,min), mean steady-state plasma concentration (Css, avg), accumulation ratio for AUC (ARAUC), and apparent oral clearance at steady state (CLss/F) for the multiple dose regimen.
Data were summarized using descriptive statistics.
Dose proportionality is assessed by fitting the relationship of the ln-transformed PK parameters (Cmax, AUC) to the ln-transformed dose using a power model loge(Y)=α+βloge(Dose)+ε.

[3] = test system: patients with NF1-related PN with tumor pain; experiment: Pain assessed by 11-point numerical rating scale (NRS-11); assay type: in vivo, human
Experimental: Efficacy was assessed by radiologic scans and clinical assessment.

[4] = test system: patients with advanced NRAS mut+ melanoma; set-up: method as in PMID 36113242; conditions: cited from earlier work
NF1-related PN = experiment: Tumor response by MRI volumetric analysis (Response Evaluation in Neurofibromatosis Schwannomatosis criteria); assay type: in vivo, human; conditions: for Best overall response: Complete response / Best overall response: Disease progression / Best overall response: Not evaluable / Best overall response: Partial response / Best overall response: Stable disease: Investigator assessments
Description: Primary endpoints of the study were the DLT incidence rate, MTD, and RP2D. Secondary endpoints included other safety assessments, imaging tumor response (complete response [CR], PR, stable disease [SD], or progressive disease [PD]), and PK parameters of FCN-159. Adverse events were graded per CTCAE v5.0.
All patients underwent a complete medical history, physical examination, Eastern Cooperative Oncology Group (ECOG) assessment, and laboratory analysis of test results. Drug-related TEAEs, serious adverse events (SAEs), TEAEs of grade ≥ 3 toxicity, and TEAEs leading to drug discontinuation were reviewed on an ongoing basis. Efficacy was assessed by radiologic scans and clinical assessment. Tumor assessments per Response Evaluation in Neurofibromatosis Schwannomatosis criteria were performed by investigators using MRI volumetric analysis every 4 cycles within the first 2 years (± 7 days) and every 6 cycles after 2 years (± 14 days) until PD, death, patient's voluntary withdrawal from study treatment, or study termination. MRI sequences of […], T1- and T2-weighted sequences were chosen and the software of Extended Brilliance Workspace, SIGNA Premier and uExceed were used for MRI volumetric analysis. The same software was used for all tumor assessments at baseline and subsequent assessed timepoints of the same patient. Pain was assessed by an 11-point numerical rating scale (NRS-11).

[5] = test system: RAS-mutant tumor cell lines; set-up: method as in doi:10.1158/1538-7445.AM2020-1951; conditions: selected RAS-mutant tumor cell lines; cited from earlier work
CYP3A4 = test system: CYP3A4; set-up: method as in PMID 36755948; conditions: in vitro study; cited from earlier work

SMILES: Cn1c(=O)c(F)c(Nc2ccc(I)cc2F)c2c(=O)n(C3CC3)nc(-c3cccc(NS(=O)(=O)C4CC4)c3)c21 [FCN-159]
- Mean T1/2 [1]: 32 to 57 h
- Dose proportionality of exposure ([2]; Cmax and AUCtau at steady state 4–8 mg, PK profile between 4 and 12 mg): approximately linear; also recorded: roughly dose proportional
- Median Tmax ([2]; across all dosing regimens): 1.21 to 2.18 h
- Mean accumulation ratio of AUC ([2]; from each cohort): 1.5–2.0
- AUCtau ([2]; multiple dose, 4 mg, N 3): 392 ng·h/mL
- CLss/F ([2]; multiple dose, 4 mg, N 3): 10.2 L/h
- Cavg,ss ([2]; multiple dose, 4 mg, N 3): 16.3 ng/mL
- Cmax,ss ([2]; multiple dose, 4 mg, N 3): 45.0 ng/mL
- Cmin,ss ([2]; multiple dose, 4 mg, N 3): 8.54 ng/mL
- ARAUC0-t ([2]; multiple dose, 4 mg, N 3): 1.56
- ARCmax ([2]; multiple dose, 4 mg, N 3): 1.25
- Tmax ([2]; multiple dose, 4 mg, N 3): 1.92 h
- AUCtau ([2]; multiple dose, 6 mg, N 4): 532 ng·h/mL
- CLss/F ([2]; multiple dose, 6 mg, N 4): 11.3 L/h
- Cavg,ss ([2]; multiple dose, 6 mg, N 4): 22.2 ng/mL
- Cmax,ss ([2]; multiple dose, 6 mg, N 4): 52.2 ng/mL
- Cmin,ss ([2]; multiple dose, 6 mg, N 4): 12.2 ng/mL
- ARAUC0-t ([2]; multiple dose, 6 mg, N 4): 2.03
- ARCmax ([2]; multiple dose, 6 mg, N 4): 1.37
- Tmax ([2]; multiple dose, 6 mg, N 4): 1.24 h
- AUCtau ([2]; multiple dose, 8 mg, N 7): 723 ng·h/mL
- CLss/F ([2]; multiple dose, 8 mg, N 7): 11.1 L/h
- Cavg,ss ([2]; multiple dose, 8 mg, N 7): 30.1 ng/mL
- Cmax,ss ([2]; multiple dose, 8 mg, N 7): 82.5 ng/mL
- Cmin,ss ([2]; multiple dose, 8 mg, N 7): 15.4 ng/mL
- ARAUC0-t ([2]; multiple dose, 8 mg, N 7): 1.75
- ARCmax ([2]; multiple dose, 8 mg, N 7): 1.36
- Tmax ([2]; multiple dose, 8 mg, N 7): 1.50 h
- AUC0-t ([2]; single dose, 4 mg, N 3): 250 ng·h/mL
- AUC0-∞ ([2]; single dose, 4 mg, N 3): 370 ng·h/mL
- CL/F ([2]; single dose, 4 mg, N 3): 10.8 L/h
- Cmax ([2]; single dose, 4 mg, N 3): 36.0 ng/mL
- T1/2 ([2]; single dose, 4 mg, N 3): 16.2 h
- Vd/F ([2]; single dose, 4 mg, N 3): 253 L
- Tmax ([2]; single dose, 4 mg, N 3): 1.43 h
- AUC0-t ([2]; single dose, 6 mg, N 4): 262 ng·h/mL
- AUC0-∞ ([2]; single dose, 6 mg, N 4): 388 ng·h/mL
- CL/F ([2]; single dose, 6 mg, N 4): 15.4 L/h
- Cmax ([2]; single dose, 6 mg, N 4): 38.1 ng/mL
- T1/2 ([2]; single dose, 6 mg, N 4): 11.4 h
- Vd/F ([2]; single dose, 6 mg, N 4): 254 L
- Tmax ([2]; single dose, 6 mg, N 4): 1.48 h
- AUC0-t ([2]; single dose, 8 mg, N 8): 453 ng·h/mL
- AUC0-∞ ([2]; single dose, 8 mg, N 8): 661 ng·h/mL
- CL/F ([2]; single dose, 8 mg, N 8): 12.1 L/h
- Cmax ([2]; single dose, 8 mg, N 8): 64.2 ng/mL
- T1/2 ([2]; single dose, 8 mg, N 8): 15.4 h
- Vd/F ([2]; single dose, 8 mg, N 8): 269 L
- Tmax ([2]; single dose, 8 mg, N 8): 1.21 h
- AUC0-t ([2]; single dose, 12 mg, N 4): 1050 ng·h/mL
- AUC0-∞ ([2]; single dose, 12 mg, N 4): 1330 ng·h/mL
- CL/F ([2]; single dose, 12 mg, N 4): 9.03 L/h
- Cmax ([2]; single dose, 12 mg, N 4): 147 ng/mL
- T1/2 ([2]; single dose, 12 mg, N 4): 11.7 h
- Vd/F ([2]; single dose, 12 mg, N 4): 153 L
- Tmax ([2]; single dose, 12 mg, N 4): 2.18 h
- Patients with reduction in pain intensity of at least 2 points ([3]; NRS-11 score ≥ 2 at baseline (16/22), cycles 4 and 5, as of 9 August 2022): 72.7%
- Average decrease in pain scores ([3]; across all patients, as of 9 August 2022): 2.4 points
- Patients achieving complete pain relief at least once (score reduced to 0) ([3]; as of 9 August 2022): 13 patients
- Mean pain score reduction ([3]; dose group of 8 mg): 2.5 points
- Patients achieving meaningful pain improvement ([3]; dose group of 8 mg (15/20)): 75%
- DLTs or SAEs ([4]; 6 mg or lower, as of October 20, 2020, dose escalated from 0.2 mg to 15 mg): no DLTs or SAEs were observed
- Tolerability ([4]; first-in-human study, NRAS mut+ melanoma): well tolerated
- RP2D ([4]; phase 1a study, advanced NRAS mut+ melanoma): 12 mg
- Best overall response: Complete response (NF1-related PN; 4 mg (n = 3)): 0 n (%)
- Best overall response: Disease progression (NF1-related PN; 4 mg (n = 3)): 0 n (%)
- Best overall response: Not evaluable (NF1-related PN; 4 mg (n = 3)): 0 n (%)
- Best overall response: Partial response (NF1-related PN; 4 mg (n = 3)): 1 (33.3) n (%)
- Best overall response: Stable disease (NF1-related PN; 4 mg (n = 3)): 2 (66.7) n (%)
- Best overall response: Complete response (NF1-related PN; 6 mg (n = 4)): 0 n (%)
- Best overall response: Disease progression (NF1-related PN; 6 mg (n = 4)): 0 n (%)
- Best overall response: Not evaluable (NF1-related PN; 6 mg (n = 4)): 0 n (%)
- Best overall response: Partial response (NF1-related PN; 6 mg (n = 4)): 2 (50.0) n (%)
- Best overall response: Stable disease (NF1-related PN; 6 mg (n = 4)): 2 (50.0) n (%)
- Best overall response: Complete response (NF1-related PN; 8 mg (n = 5)): 0 n (%)
- Best overall response: Disease progression (NF1-related PN; 8 mg (n = 5)): 0 n (%)
- Best overall response: Not evaluable (NF1-related PN; 8 mg (n = 5)): 0 n (%)
- Best overall response: Partial response (NF1-related PN; 8 mg (n = 5)): 2 (40.0) n (%)
- Best overall response: Stable disease (NF1-related PN; 8 mg (n = 5)): 3 (60.0) n (%)
- Best overall response: Complete response (NF1-related PN; 12 mg (n = 4)): 0 n (%)
- Best overall response: Disease progression (NF1-related PN; 12 mg (n = 4)): 0 n (%)
- Best overall response: Not evaluable (NF1-related PN; 12 mg (n = 4)): 0 n (%)
- Best overall response: Partial response (NF1-related PN; 12 mg (n = 4)): 1 (25.0) n (%)
- Best overall response: Stable disease (NF1-related PN; 12 mg (n = 4)): 3 (75.0) n (%)
- Patients with progressive disease (PD) (NF1-related PN; 16 evaluable patients): none experienced PD; also recorded: zero patients had PD
- Patients with reduced tumor volume (NF1-related PN; 16 patients with at least one post-baseline tumor assessment): 100%
- Best overall response: Complete response (NF1-related PN; Total (n = 16)): 0 n (%)
- Best overall response: Disease progression (NF1-related PN; Total (n = 16)): 0 n (%)
- Best overall response: Not evaluable (NF1-related PN; Total (n = 16)): 0 n (%)
- Best overall response: Partial response (NF1-related PN; Total (n = 16)): 6 (37.5) n (%)
- Best overall response: Stable disease (NF1-related PN; Total (n = 16)): 10 (62.5) n (%)
- Largest reduction in tumor volume (NF1-related PN; in vivo): 84.2%
- Patients achieving partial responses (NF1-related PN; six of 16 evaluable patients): 37.5%
- Cell proliferation [5]: inhibiting cell proliferation
- Metabolism (CYP3A4): metabolized primarily by CYP3A4
